We go through 23 molecules from patent US8530493B2, “Indolopyridines as Eg5 kinesin modulators” (4SC AG, priority 2006, dated 2013).

SMILES strings stand for the structures.

This test deals with RKO p21 uninduced (proliferating) colon adenocarcinoma cells. Nature of the test: Alamar Blue cell viability assay, RKO p21 uninduced (proliferating). To be noted: Homo sapiens, Table B3, anti-proliferative/cytotoxic activity, 72 hours, read-out: −log EC50 RKO p21 uninduced (proliferating) (converted). Format: cell-based. In short, it runs like this:
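Viability read by Alamar Blue fluorescence (ex 544, em 590 nm), normalised to untreated wells, after 72 h, 37° C, 5% CO2 compound exposure in triplicate. Cells were uninduced (no Ponasterone A), proliferating RKO colon carcinoma p27 or p21 subclones in DMEM with 10% FCS; values are −log EC50 (mol/l).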
As to `COc1cc2c3c([nH]c2cc1F)[C@@H](c1cccc(O)c1)N1C(=O)N(CCCN2CCCCCC2)C(=O)[C@]1(C)C3` (racemic) [Example 329, (3aSR,10RS)-2-(3-Azepan-1-yl-propyl)-7-fluoro-10-(3-hydroxy-phenyl)-6-methoxy-3a-methyl-3a,4,9,10-tetrahydro-2,9,10a-triaza-cyclopenta[b]fluorene-1,3-dione], the EC50 was 0.0398 to 0.251 µM. The same measure for `CCN(C)CCCN1C(=O)N2[C@H](c3cccc(O)c3)c3[nH]c4ccc(Br)cc4c3C[C@@]2(C)C1=O` (racemic) [Example 216, (3aSR,10RS)-6-Bromo-2-[3-(ethyl-methyl-amino)-propyl]-10-(3-hydroxy-phenyl)-3a-methyl-3a,4,9,10-tetrahydro-2,9,10a-triaza-cyclopenta[b]fluorene-1,3-dione]: not above 0.0398 µM. Take `C[C@@]12Cc3c([nH]c4ccc(OC(F)F)cc34)[C@@H](c3cccc(O)c3)N1C(=O)N(CCCNCCO)C2=O` (racemic) [Example 201, (3aSR,10RS)-6-(1,1-Difluoro-methoxy)-2-[3-(2-hydroxy-ethylamino)-propyl]-10-(3-hydroxy-phenyl)-3a-methyl-3a,4,9,10-tetrahydro-2,2,10a-triaza-cyclopenta[b]fluorene-1,3-dione]: the EC50 is 0.0398 to 0.251 µM. Then `COc1cc2c3c([nH]c2cc1F)[C@@H](c1cccc(O)c1)N1C(=O)N(CCNCCO)C(=O)[C@]1(C)C3` [Example 245, (3aS,10R)-7-Fluoro-2-[2-(2-hydroxy-ethylamino)-ethyl]-10-(3-hydroxy-phenyl)-6-methoxy-3a-methyl-3a,4,9,10-tetrahydro-2,9,10a-triaza-cyclopenta[b]fluorene-1,3-dione], with 0.0398 to 0.251 µM.

`CCN(CCOC)CCN1C(=O)N2[C@H](c3cccc(O)c3)c3[nH]c4cc(F)c(OC)cc4c3C[C@@]2(C)C1=O` (racemic) [Example 454, (3aSR,10RS)-2-{2-[Ethyl-(2-methoxy-ethyl)-amino]-ethyl}-7-fluoro-10-(3-hydroxy-phenyl)-6-methoxy-3a-methyl-3a,4,9,10-tetrahydro-2,9,10a-triaza-cyclopenta[b]fluorene-1,3-dione]: the EC50 is 0.0398 to 0.251 µM. Then `CC1CCN(CCN2C(=O)N3[C@H](c4cccc(O)c4)c4[nH]c5cc(F)c(Cl)cc5c4C[C@@]3(C)C2=O)CC1` (racemic) [Example 357, (3aSR,10RS)-6-Chloro-7-fluoro-10-(3-hydroxy-phenyl)-3a-methyl-2-[2-(4-methyl-piperidin-1-yl)-ethyl]-3a,4,9,10-tetrahydro-2,9,10a-triaza-cyclopenta[b]fluorene-1,3-dione], with 0.0398 to 0.251 µM. Then `C[C@@]12Cc3c([nH]c4cc(F)c(Cl)cc34)[C@@H](c3cccc(O)c3)N1C(=O)N(CCCN1CCOCC1)C2=O` (racemic) [Example 475, (3aSR,10RS)-6-Chloro-7-fluoro-10-(3-hydroxy-phenyl)-3a-methyl-2-(3-morpholin-4-yl-propyl)-3a,4,9,10-tetrahydro-2,9,10a-triaza-cyclopenta[b]fluorene-1,3-dione], with 0.0398 to 0.251 µM. The same measure for `CN1CCN(CCCN2C(=O)N3[C@H](c4cccc(O)c4)c4[nH]c5cc(F)c(Cl)cc5c4C[C@@]3(C)C2=O)CC1` (racemic) [Example 481, (3aSR,10RS)-6-Chloro-7-fluoro-10-(3-hydroxy-phenyl)-3a-methyl-2-[3-(4-methyl-piperazin-1-yl)-propyl]-3a,4,9,10-tetrahydro-2,9,10a-triaza-cyclopenta[b]fluorene-1,3-dione]: 0.0398 to 0.251 µM; for `COc1ccc2[nH]c3c(c2c1)C[C@@]1(C)C(=O)N(CCCNC2CC2)C(=O)N1[C@@H]3c1cccc(O)c1` [Example 537, (3aS,10R)-2-(3-Cyclopropylamino-propyl)-10-(3-hydroxy-phenyl)-6-methoxy-3a-methyl-3a,4,9,10-tetrahydro-2,9,10a-triaza-cyclopenta[b]fluorene-1,3-dione]: not above 0.0398 µM; for `COc1cc2c3c([nH]c2cc1F)[C@@H](c1cccc(O)c1)N1C(=O)N(CCN2CCN(C)CC2)C(=O)[C@]1(C)C3` (racemic) [Example 266, (3aSR,10RS)-7-Fluoro-10-(3-hydroxy-phenyl)-6-methoxy-3a-methyl-2-[2-(4-methyl-piperazin-1-yl)-ethyl]-3a,4,9,10-tetrahydro-2,9,10a-triaza-cyclopenta[b]fluorene-1,3-dione]: 0.0398 to 0.251 µM. With `COc1cc2c3c([nH]c2cc1F)[C@@H](c1cccc(O)c1)N1C(=O)N(CCNCC2CC2)C(=O)[C@]1(C)C3` (racemic) [Example 251, (3aSR,10RS)-2-[2-(Cyclopropylmethyl-amino)-ethyl]-7-fluoro-10-(3-hydroxy-phenyl)-6-methoxy-3a-methyl-3a,4,9,10-tetrahydro-2,9,10a-triaza-cyclopenta[b]fluorene-1,3-dione], the EC50 is not above 0.0398 µM.

In the case of `COCCNCCN1C(=O)N2[C@H](c3cccc(O)c3)c3[nH]c4cc(F)c(OC)cc4c3C[C@@]2(C)C1=O` (racemic) [Example 253, (3aSR,10RS)-7-Fluoro-10-(3-hydroxy-phenyl)-6-methoxy-2-[2-(2-methoxy-ethylamino)-ethyl]-3a-methyl-3a,4,9,10-tetrahydro-2,9,10a-triaza-cyclopenta[b]fluorene-1,3-dione], the EC50 was 0.0398 to 0.251 µM. Then `COc1cc2c3c([nH]c2cc1F)[C@@H](c1cccc(O)c1)N1C(=O)N(CCN2CCCCC2)C(=O)[C@]1(C)C3` (racemic) [Example 263, (3aSR,10RS)-7-Fluoro-10-(3-hydroxy-phenyl)-6-methoxy-3a-methyl-2-(2-piperidin-1-yl-ethyl)-3a,4,9,10-tetrahydro-2,9,10a-triaza-cyclopenta[b]fluorene-1,3-dione], with 0.0398 to 0.251 µM; and `CN1CCN(CCN2C(=O)N3[C@H](c4cccc(O)c4)c4[nH]c5cc(F)c(Cl)cc5c4C[C@@]3(C)C2=O)CC1` (racemic) [Example 359, (3aSR,10RS)-6-Chloro-7-fluoro-10-(3-hydroxy-phenyl)-3a-methyl-2-[2-(4-methyl-piperazin-1-yl)-ethyl]-3a,4,9,10-tetrahydro-2,9,10a--triaza-cyclopenta[b]fluorene-1,3-dione], with 0.0398 to 0.251 µM; and `CC(C)(C)NCCN1C(=O)N2[C@H](c3cccc(O)c3)c3[nH]c4ccc(OC(F)F)cc4c3C[C@@]2(C)C1=O` (racemic) [Example 273, (3aSR,10RS)-2-(2-tert-Butylamino-ethyl)-6-(1,1-difluoro-methoxy)-10-(3-hydroxy-phenyl)-3a-methyl-3a,4,9,10-tetrahydro-2,9,10a-triaza-cyclopenta[b]fluorene-1,3-dione], with not above 0.0398 µM. Then `C[C@@]12Cc3c([nH]c4ccc(Br)cc34)[C@@H](c3cccc(O)c3)N1C(=O)N(CCCNCC1CC1)C2=O` (racemic) [Example 234, (3aSR,10RS)-6-Bromo-2-[3-(cyclopropylmethyl-amino)-propyl]-10-(3-hydroxy-phenyl)-3a-methyl-3a,4,9,10-tetrahydro-2,9,10a-triaza-cyclopenta[b]fluorene-1,3-dione], with not above 0.0398 µM; and `C=CCN(C)CCN1C(=O)N2[C@H](c3cccc(O)c3)c3[nH]c4cc(F)c(Cl)cc4c3C[C@@]2(C)C1=O` (racemic) [Example 362, (3aSR,10RS)-2-[2-(Allyl-methyl-amino)-ethyl]-6-chloro-7-fluoro-10-(3-hydroxy-phenyl)-3a-methyl-3a,4,9,10-tetrahydro-2,9,10a-triaza-cyclopenta[b]fluorene-1,3-dione], with 0.0398 to 0.251 µM.

In the case of `COc1cc2c3c([nH]c2cc1F)[C@@H](c1cccc(O)c1)N1C(=O)N(CCN(C)C(C)C)C(=O)[C@]1(C)C3` (racemic) [Example 259, (3aSR,10RS)-7-Fluoro-10-(3-hydroyx-phenyl)-2-[2-(isopropyl-methyl-amino)-ethyl]-6-methoxy-3a-methyl-3a,4,9,10-tetrahydro-2,9,10a-triaza-cyclopenta[b]fluorene-1,3-dione], the EC50 is 0.0398 to 0.251 µM. Then `CCOc1ccc2[nH]c3c(c2c1)C[C@@]1(C)C(=O)N(CCNC2CC2)C(=O)N1[C@@H]3c1cccc(O)c1` (racemic) [Example 161, (3aSR,10RS)-2-(2-Cyclopropylamino-ethyl)-6-ethoxy-10-(3-hydroxy-phenyl)-3a-methyl-3a,4,9,10-tetrahydro-2,9,10a-triaza-cyclopenta[b]fluorene-1,3-dione], with 0.0398 to 0.251 µM.

As for `COc1cc2c3c([nH]c2cc1F)[C@@H](c1cccc(O)c1)N1C(=O)N(CCN(C)CCO)C(=O)[C@]1(C)C3` [Example 246, (3aS,10R)-7-Fluoro-2-{2-[(2-hydroxy-ethyl)-methyl-amino]-ethyl}-10-(3-hydroxy-phenyl)-6-methoxy-3a-methyl-3a,4,9,10-tetrahydro-2,9,10a-triaza-cyclopenta[b]fluorene-1,3-dione], the EC50 was 0.0398 to 0.251 µM.

As for `COCCNCCCN1C(=O)N2[C@H](c3cccc(O)c3)c3[nH]c4ccc(Br)cc4c3C[C@@]2(C)C1=O` (racemic) [Example 214, (3aSR,10RS)-6-Bromo-10-(3-hydroxy-phenyl)-2-[3-(2-methoxy-ethylamino)-propyl]-3a-methyl-3a,4,9,10-tetrahydro-2,9,10a-triaza-cyclopenta[b]fluorene-1,3-dione], the EC50 is not above 0.0398 µM. Then `CCOc1ccc2[nH]c3c(c2c1)C[C@@]1(C)C(=O)N(CCCNC2CC2)C(=O)N1[C@@H]3c1cccc(O)c1` (racemic) [Example 190, (3aSR,10RS)-2-(3-Cyclopropylamino-propyl)-6-ethoxy-10-(3-hydroxy-phenyl)-3a-methyl-3a,4,9,10-tetrahydro-2,9,10a-triaza-cyclopenta[b]fluorene-1,3-dione], with 0.0398 to 0.251 µM; and `C#CCNCCCN1C(=O)N2[C@H](c3cccc(O)c3)c3[nH]c4ccc(OC)cc4c3C[C@@]2(C)C1=O` [Example 539, (3aS,10R)-10-(3-Hydroxy-phenyl)-6-methoxy-3a-methyl-2-(3-prop-2-ynylamino-propyl)-3a,4,9,10-tetrahydro-2,9,10a-triaza-cyclopenta[b]fluorene-1,3-dione], with not above 0.0398 µM.
